This is an account of results in patent US20180185520A1, “COLLAGEN IMAGING COMPOSTIONS” (Collagen Medical, LLC, priority 2015, published 2018).

For one assay, the target named is T1, human type I collagen (Homo sapiens, UniProt P02452+P08123).
T1 construct: purchased Advanced Biomatrix 5007-A
Kind of assay: Collagen binding assay, dried human collagen in microtiter plate. The note with it: 37° C., pH 7.4. The procedure:
10 ml of a solution of 3 mg/ml of human type I collagen (VitroCol solution, Advanced Biomatrix, cat#5007-A) is dialyzed against 10 mM Phosphate (NaH2PO4), pH 4.2 at 4° C. with three changes of the dialysis buffer. The protein concentration is determined by liquid chromatography determination of hydroxyproline (P. Hutson, J. Chromatogr. B, 791 (2003) 427-430).
Ice-cold 1×PBS pH 10.8 is added to the collagen solution for a final collagen concentration of 10 μM, pH 7.4. Collagen solutions are gelled and dried down in the wells of a 96 well microtiter plate (Corning Polystyrene Flat Bottom, cat#3641). […] The final well content of gelled collagen is measured by determination of hydroxyproline and is around 180 μg/ml.
(§1) a serial dilution of 0.2 μM-30 μM of the peptide chelate is prepared in PBS, pH 7.4 ([…], of solution for each concentration). […] The concentration of free, unbound compound in the sample supernatants and the concentration of compound in the reserved (total) sample are determined by ICP-MS (Agilent 7500, gadolinium concentration). The concentration of compound bound to collagen is determined as [bound]=[total]−[unbound].
(§2) The binding of compounds to human, rat and dog collagen (5 μM) was measured over the concentration range 0.2-5 μM of Comp ID Nos.: 1-4. […]

For assay [1], the target named is T2, rat collagen (acid soluble, type I, rat tail) (Rattus norvegicus, UniProt P02454+P02466).
T2 construct: purchased Millipore Inc 08-115; host or cells: rat tail
The assay is described as follows: Collagen binding assay, dried rat collagen in microtiter plate. The settings on record: 37° C., pH 7.4. The procedure: 10 ml of a 3.79 mg/mL solution of rat collagen (acid soluble, type I, rat tail, Millipore Inc, cat#08-115) is dialyzed against 10 mM Phosphate (NaH2PO4), pH 4.2 at 4° C. with three changes of the dialysis buffer.
Ice-cold 1×PBS pH 10.8 is added to the collagen solution for a final collagen concentration of 10 μM, pH 7.4. Collagen solutions are gelled and dried down in the wells of a 96 well microtiter plate (Corning Polystyrene Flat Bottom, cat#3641). 70 μl of 10 μM collagen is aliquoted into each well in every other lane in the plate (48 wells) and the plate is incubated at 37° C. for 18 hours to form a gel and evaporate to dryness. […] The final well content of gelled collagen is measured by determination of hydroxyproline and is around 180 μg/ml.
as §1, §2

In another assay the test system is myocardium. It counts as in vivo. The note with it: Compound ID No. 1 7.5 μmol/kg (canine) vs EP-3600 12.3 μmol/kg (pig). As to the method: To mimic severe ischemia, a canine model was used in which an inflatable variable vascular occluder was placed around the left anterior descending coronary artery (LAD) to allow occlusion and reperfusion. Imaging was performed on a 3T clinical scanner 4 days after implantation of the occluder. The conventional saturation recovery pulse sequence for stress perfusion imaging was compared with a segmented inversion method. The purpose of the segmented inversion method was to leverage the steady-state properties of Compound ID No. 1. This segmented inversion recovery pulse sequence provides greater T1 weighting, higher spatial resolution, and greater myocardial tissue contrast. Additionally, since imaging is delayed, the entire heart can be imaged. After baseline […] scanning, the balloon was inflated. […]
To assess relative perfusion, labeled microspheres were administered at 3 timepoints in the study. […] At autopsy under ultraviolet light, the hypo-perfused myocardium was differentiated from normal myocardium due to the lack of fluorescence in the hypo-perfused tissue. Based on the fluorescence, a sample of the ischemic territory and a sample of the remote myocardium were taken for ex vivo analysis. These tissue samples were weighed, digested in nitric acid, and analyzed for the elements La, Au, Lu (the three microsphere injections) and gadolinium (Compound ID No. 1) using ICP-MS. […]

T1 sequence (P02452 162-1218 limits assumed): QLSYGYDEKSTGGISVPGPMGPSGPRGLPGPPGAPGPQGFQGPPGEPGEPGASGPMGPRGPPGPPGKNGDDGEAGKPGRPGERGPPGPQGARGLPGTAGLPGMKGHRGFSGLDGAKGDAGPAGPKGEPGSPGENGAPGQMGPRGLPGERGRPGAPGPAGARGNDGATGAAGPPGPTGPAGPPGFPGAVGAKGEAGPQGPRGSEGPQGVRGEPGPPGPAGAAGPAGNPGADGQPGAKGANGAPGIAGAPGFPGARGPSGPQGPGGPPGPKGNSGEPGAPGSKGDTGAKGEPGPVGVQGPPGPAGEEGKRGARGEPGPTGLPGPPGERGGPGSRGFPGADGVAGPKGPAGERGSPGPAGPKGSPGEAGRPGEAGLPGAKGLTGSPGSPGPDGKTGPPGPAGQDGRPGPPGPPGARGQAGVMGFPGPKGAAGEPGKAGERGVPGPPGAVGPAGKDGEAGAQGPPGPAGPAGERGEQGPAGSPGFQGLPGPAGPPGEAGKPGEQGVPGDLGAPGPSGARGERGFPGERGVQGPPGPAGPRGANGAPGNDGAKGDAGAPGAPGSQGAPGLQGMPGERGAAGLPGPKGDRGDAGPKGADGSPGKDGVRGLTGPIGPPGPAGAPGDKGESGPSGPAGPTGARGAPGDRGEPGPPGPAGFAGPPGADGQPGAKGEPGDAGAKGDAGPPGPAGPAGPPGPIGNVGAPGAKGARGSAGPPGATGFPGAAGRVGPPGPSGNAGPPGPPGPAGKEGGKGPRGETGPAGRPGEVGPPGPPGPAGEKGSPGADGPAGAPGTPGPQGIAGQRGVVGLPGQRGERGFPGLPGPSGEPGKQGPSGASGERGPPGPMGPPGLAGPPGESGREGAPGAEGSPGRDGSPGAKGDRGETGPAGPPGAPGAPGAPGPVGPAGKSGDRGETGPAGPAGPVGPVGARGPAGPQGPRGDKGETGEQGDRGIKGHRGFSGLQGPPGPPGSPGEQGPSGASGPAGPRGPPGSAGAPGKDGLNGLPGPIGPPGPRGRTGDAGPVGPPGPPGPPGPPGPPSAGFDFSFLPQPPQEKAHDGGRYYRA
T1 sequence (P08123 80-1119 limits assumed): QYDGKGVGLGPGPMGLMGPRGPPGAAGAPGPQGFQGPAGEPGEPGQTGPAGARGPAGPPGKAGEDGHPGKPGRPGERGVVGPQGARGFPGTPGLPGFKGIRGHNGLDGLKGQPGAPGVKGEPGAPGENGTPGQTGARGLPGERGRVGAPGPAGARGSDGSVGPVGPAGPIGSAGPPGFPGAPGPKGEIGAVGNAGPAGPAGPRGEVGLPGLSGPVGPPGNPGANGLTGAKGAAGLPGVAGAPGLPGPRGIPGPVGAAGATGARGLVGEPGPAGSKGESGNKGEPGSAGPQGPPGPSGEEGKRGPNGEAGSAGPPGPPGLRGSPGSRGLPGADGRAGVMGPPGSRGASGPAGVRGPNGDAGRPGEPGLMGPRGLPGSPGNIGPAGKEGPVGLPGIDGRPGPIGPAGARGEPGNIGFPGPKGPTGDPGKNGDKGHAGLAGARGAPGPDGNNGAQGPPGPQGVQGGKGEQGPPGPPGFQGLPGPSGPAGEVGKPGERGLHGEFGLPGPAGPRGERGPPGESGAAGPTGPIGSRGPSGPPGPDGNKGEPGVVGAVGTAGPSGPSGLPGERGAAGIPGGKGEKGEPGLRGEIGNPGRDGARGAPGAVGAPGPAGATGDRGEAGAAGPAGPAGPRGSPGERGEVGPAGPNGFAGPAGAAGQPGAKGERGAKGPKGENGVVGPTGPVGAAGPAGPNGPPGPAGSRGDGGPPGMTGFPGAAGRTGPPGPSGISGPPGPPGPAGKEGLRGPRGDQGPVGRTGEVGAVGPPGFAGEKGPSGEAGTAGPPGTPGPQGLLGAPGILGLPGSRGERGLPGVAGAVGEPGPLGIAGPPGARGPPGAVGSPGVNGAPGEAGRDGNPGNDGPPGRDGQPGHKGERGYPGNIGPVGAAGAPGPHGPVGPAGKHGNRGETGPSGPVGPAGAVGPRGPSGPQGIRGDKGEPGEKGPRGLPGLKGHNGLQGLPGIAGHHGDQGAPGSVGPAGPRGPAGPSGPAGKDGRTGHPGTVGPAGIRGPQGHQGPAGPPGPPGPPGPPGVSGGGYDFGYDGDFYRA

Broadly, the Kd is the constant that tells how readily two partners part at equilibrium. Low values mean higher affinity, high ones lower affinity. On to `CC(C)C[C@H](NC(=O)[C@@H]1CSSC[C@H](NC(=O)[C@H](Cc2c[nH]cn2)NC(=O)[C@H](Cc2c[nH]c3ccccc23)NC(=O)[C@H](CCCCNC(=O)CC[C@H](C(=O)O)N2CCN(CC(=O)O)CCN(CC(=O)O)CCN(CC(=O)O)CC2)NC(=O)CNC(=O)CC[C@H](C(=O)O)N2CCN(CC(=O)O)CCN(CC(=O)O)CCN(CC(=O)O)CC2)C(=O)N[C@@H]([C@@H](C)O)C(=O)N[C@@H]([C@@H](C)O)C(=O)N[C@@H](CCCCNC(=O)CC[C@H](C(=O)O)N2CCN(CC(=O)O)CCN(CC(=O)O)CCN(CC(=O)O)CC2)C(=O)N[C@@H](Cc2ccccc2)C(=O)N2CCC[C@H]2C(=O)N[C@@H](Cc2c[nH]cn2)C(=O)N[C@@H](Cc2c[nH]cn2)C(=O)N[C@@H](Cc2ccc(O)cc2)C(=O)N1)C(=O)N[C@@H](Cc1ccc(O)cc1)C(=O)N[C@@H](Cc1ccc(-c2ccccc2)cc1)C(N)=O` [Compound ID No. 1], for which the Kd on human type I collagen is 3.8 µM; in assay [1], 21.1 µM. Also, the “ΔCNR relative to EP-3600 (fold higher)” value with myocardium lay within 3 to 4 fold.
